Source: patent publication US12617818B2, “Compositions and methods for modulating myosin subfragment-2 coiled coil stability and methods for using them” (UNIVERSITY OF NORTH TEXAS, priority 2020, dated 2026)
pKd: −log10 of the molar value. “And” between values parts separate entries of the source, which are not always exact repeats. Equal values may be shown once.

How the values were obtained:
[1] = target: T1, human cardiac myosin S2 peptide (Homo sapiens, UniProt P12883); assay: Competitive ELISA (cELISA) against polyclonal anti-S2 antibody; assay type: binding; conditions: curve fit of OD vs peptide concentration; read-out: binding efficiency (Kd) to human cardiac myosin S2 peptide
T1 construct: The 19 residue peptide was chemically synthesized
Method: Phosphate buffer saline (PBS) contained 0.14 M sodium chloride, 2.7 mM potassium chloride, 1.5 mM potassium phosphate monobasic, and 8.1 mM sodium phosphate dibasic with pH 7.4. Detergent buffer was made with 0.05% triton X-100 in PBS, blocking buffer was made with 3% powdered milk in detergent buffer. Assay buffer contained 100 mM potassium phosphate dibasic, 100 mM potassium phosphate monobasic, 1 M potassium chloride and 10 mM magnesium chloride with pH 7.0. Stocks of primary antibody (polyclonal antibody anti-S2), rabbit skeletal myosin, human cardiac myosin S2 peptide, stabilizer and destabilizer peptide. Secondary antibody conjugated with alkaline phosphatase was anti-guinea pig immunoglobulin G (IgG)-alkaline phosphatase (Sigma-Aldrich, catalog number A5062) produced in goat and isolated by affinity chromatography. Substrate was 5-Bromo-4-chloro-3-indolyl phosphate (BCIP) tablets dissolved in 10 ml of distilled water per tablet and 96 well microtiter plate.
Competitive Enzyme Linked Immunosorbent Assay (cELISA) is a classical immunochemical test to validate the binding efficiency and specificity in lower molar concentrations (Yorde et al., 1976; Voller et al., 1978; Walker, J. M. 1996). In this assay the polyclonal antibody anti-S2 raised against single alpha helix of myosin S2 would be used to compete with stabilizer or destabilizer peptide to bind myosin S2 in rabbit skeletal myosin molecule as well as small human cardiac myosin S2 peptide. This cELISA, thus have two molecules polyclonal anti-S2 and stabilizer peptide which have two binding sites one on rabbit skeletal myosin and the other one being on small human cardiac myosin S2. Since both polyclonal anti-S2 and stabilizer peptide were designed against human β-cardiac myosin S2 they both would have a stronger affinity towards the smaller human β-cardiac myosin S2 peptide against the myosin S2 on rabbit skeletal myosin.
To test the binding specificity and efficiency of stabilizer or destabilizer peptide the following setup was used. Start of the setup would be to coat the wells with rabbit skeletal myosin molecule and add appropriate amount human cardiac myosin S2 peptide that would bind the primary polyclonal anti-S2 antibody and when washed there won't be enough primary polyclonal anti-S2 antibody to bind myosin S2 of rabbit skeletal myosin adsorbed on the wells. When alkaline phosphatase conjugated secondary antibody is added on to the wells, it won't have enough or none primary polyclonal anti-S2 antibody to bind. After addition of color developing BCIP substrate to the wells it would lead to low or no color development leading to lower optical density (OD). […]

[2] = target: T2, cardiac muscle myosin S2 peptide (MYH7) (Homo sapiens, UniProt P12883); assay: Gravitational force spectroscopy (GFS), uncoiling of cardiac myosin S2 peptide dimer; assay type: biochemical; conditions: for Force required to uncoil S2 molecule: length 10 nm, in presence of the anti-S2 peptide, ± SEM
T2 construct: host or cells: chemical synthesis
T2 sequence (P12883 912-947 limits assumed): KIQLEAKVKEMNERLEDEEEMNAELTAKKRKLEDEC
Source text: 3-aminopropyltriethoxysilane, acetone, coupling buffer (0.01 M pyridine in water with pH 6.0), 5% glutaraldehyde, quenching solution (1 M glycine in water with pH 7.0), blocking buffer (0.01 M Tris, 0.1% sodium azide, 0.1% bovine serum albumin, 0.15 M sodium chloride, and 0.001 M ethylenediaminetetraacetic acid with pH 7.0), wash buffer (0.01 M Tris, 0.1% sodium azide, 0.15 M sodium chloride, and 0.001 M ethylenediaminetetraacetic acid with pH 7.0) low salt buffer (0.1 M potassium chloride, 0.02 M imidazole, 5 mM magnesium chloride, with pH 7.0), 1-ethyl-3-(3-dimethyaminopropyl) carbodiimide, N-hydroxysuccinamide, iodoacetamide-succinimidyl ester, 8M urea solution (50 mM imidazole and 0.1 mM tris (2-carboxyethyl) phosphine with pH 7.0) monodisperse silica beads, glass slides, glass coverslips, vacuum grease, rabbit skeletal myosin, purified actin (G-actin), 1 μM human β-cardiac myosin S2 peptide, 1 μM human β-cardiac mutants myosin S2 peptide (E930del and E924K), 1 μM human skeletal myosin S2 peptide, 1 μM human smooth myosin S2 peptide, stabilizer peptide, and destabilizer peptide. A light microscope with an objective lens of 10× was mounted on an alt-azimuthal mount. A digital video camera of Sony, XCD-V60 was replaced with the ocular lenses. Extension springs on steel bracket held the alt-azimuthal mount suspended.
Gravitational force spectroscopy (GFS), is a single molecule force spectroscopy that utilizes gravitational force to measure absolute length of a single molecule at the given force calculated by the density of the bead suspending the molecule. This technique was discovered and developed in Root lab, which measures the forces in piconewton and sub-piconewton levels. Other than absolute length of a molecule, GFS measures force range required to uncoil, stretch or extend the molecule yielding a force-distance profile for the suspended molecule. Besides that, based on the force-distance profile, number of amino acids within the molecule can be calculated. […] The GFS allowed to test the flexibility or stability of a single molecule of myosin S2 peptide and also for the S2 peptides treated with anti-S2 peptides. Flexibility of myosin S2 is not dependent on assembly myosin as a thick filament or myosin in its single molecule form. The flexibility of myosin S2 region was reported to be similar in single molecule form or myosin in a thick filament assembly thus it could be conceived that the changes seen on flexibility of myosin S2 in presence of anti-S2 peptides would correlate to changes in myosin S2 flexibility for myosin in a thick filament form (Singh et al., 2018). The schematic diagram of GFS is shown below (schematic diagrams of GFS which has two modes: (FIG. 15) free-fall mode, (FIG. 16) rotational mode.
GFS set up assembly contains a light microscope that is horizontally mounted on an alt-azimuthal which is suspended with help of extension springs on a steel bracket. To capture both images and videos of suspended molecule, a digital video camera has been placed instead of the ocular lenses. The molecule of interest is tethered between an immobile edge of glass coverslip placed on a glass slide and mobile silica or glass bead. Slide with the molecule of interest in inserted into the light microscope component of GFS. The bead with molecule of interest is imaged through the microscope and then oriented to the direction of gravity vector to allow the maximal gravitation force exerted on to the bead. GFS has two modes, one is called rotational mode or an equilibrium mode which measures the absolute length of a single molecule and the second one is called free fall mode which measures the force required to unwind, uncoil, stretch or extend the molecule of interest.
Free fall mode, another measurement variant of GFS which allows the user to get a force distance profile on a single molecule experiencing the gravitational force. […]

C[C@H](NC(=O)[C@H](CCCCN)NC(=O)[C@H](Cc1ccccc1)NC(=O)[C@H](CCCCN)NC(=O)[C@H](CCCCN)NC(=O)[C@H](CCCCN)NC(=O)[C@H](CCCCN)NC(=O)[C@H](CCCCN)NC(=O)[C@H](CCCCN)NC(=O)[C@H](CCCCN)NC(=O)[C@@H](N)CCCCN)C(=O)N[C@@H](CCCCN)C(=O)N[C@@H](CCCCN)C(=O)N[C@@H](CCCCN)C(=O)N[C@@H](CCCCN)C(=O)N[C@@H](CCCCN)C(=O)N[C@@H](CCCCN)C(=O)O [Stabilizer]
pKd [1]: 9.00
Force required to uncoil S2 molecule [2]: 1.55E+00 ± 1.46E−01 pN
Force required to uncoil S2 molecule ([2]; listed as stabilizer): 1.55±1.46×10^−1 pN
increase of force required to uncoil the coiled coil ([2]; vs absence of anti-S2 peptide): 1.80 times

CSCC[C@H](NC(=O)[C@H](CCC(=O)O)NC(=O)[C@H](CCCNC(=N)N)NC(=O)[C@H](CCC(=O)O)NC(=O)[C@H](CC(=O)O)NC(=O)[C@H](CCC(=O)O)NC(=O)[C@H](CC(C)C)NC(=O)[C@H](CCCNC(=N)N)NC(=O)[C@H](CCC(=O)O)NC(=O)[C@H](CC(N)=O)NC(=O)[C@H](CCSC)NC(=O)[C@@H](N)CCC(=O)O)C(=O)N[C@@H](CCCCN)C(=O)N[C@@H](C)C(=O)N[C@@H](CCC(=O)O)C(=O)N[C@@H](CC(C)C)C(=O)N[C@H](C(=O)N[C@@H](C)C(=O)N[C@@H](CCCCN)C(=O)O)[C@@H](C)O [Destabilizer]
pKd [1]: 8.22 and 9.00
Force required to uncoil S2 molecule [2]: 4.36E−01 ± 3.30E−02 pN
Force required to uncoil S2 molecule ([2]; listed as destabilizer): 4.36×10^−1±3.30×10^−2 pN
decrease of force required to uncoil the coiled coil ([2]; vs absence of anti-S2 peptide): 1.98 times
